What all share (experiment): relative viability (nuclei count vs DMSO), 5 days (fraction); higher = more cells survive
Compound in assay [1]: CC1=CC(=CC=C1)NC2=NC(=CS2)C3=CC=NC=C3 + NC(=O)Nc1cc(-c2cccc(F)c2)sc1C(=O)N[C@H]1CCCNC1 [AZD7762] (partner 0.2 µM)
In a few lines:
(§1)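 Relative viability was taken as the ratio of nuclei in treated wells to nuclei in vehicle wells. Lung cancer cell lines in 1536-well plates received compounds by pin tool one day after seeding, either one drug alone or a fixed anchor-drug dose plus five library-drug doses (not always all listed) in √10 steps. Nuclei were counted on 4× images after 5 days of treatment, and values are medians of duplicate plates.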

Compound in assay [2]: CC1=CC(=CC=C1)NC2=NC(=CS2)C3=CC=NC=C3 + O=C(c1cc(Cc2n[nH]c(=O)c3ccccc23)ccc1F)N1CCN(C(=O)C2CC2)CC1 [Olaparib] (partner 8 µM)
In a few lines:
as §1

Compound in the assay “Masitinib + Foretinib”: Cc1ccc(NC(=O)c2ccc(CN3CCN(C)CC3)cc2)cc1Nc1nc(-c2cccnc2)cs1 [Masitinib] + COc1cc2c(Oc3ccc(NC(=O)C4(C(=O)Nc5ccc(F)cc5)CC4)cc3F)ccnc2cc1OCCCN1CCOCC1 [Foretinib] (partner 0.25 µM)
In a few lines:
as §1

Compound in the assay “Masitinib + Crizotinib”: Cc1ccc(NC(=O)c2ccc(CN3CCN(C)CC3)cc2)cc1Nc1nc(-c2cccnc2)cs1 [Masitinib] + C[C@@H](Oc1cc(-c2cnn(C3CCNCC3)c2)cnc1N)c1c(Cl)ccc(F)c1Cl [Crizotinib] (partner 1 µM)
In a few lines: as §1

Regarding NCI-H2347, the relative viability turned out to be 0.613 in assay [1] (first compound 0.08 µM); 0.731 in assay [1] (first compound 0.253 µM); 0.699 in assay [1] (first compound 0.8 µM); 0.778 in assay [1] (first compound 2.53 µM); 0.72 in assay [1] (first compound 8 µM); 0.47 in assay [2] (first compound 0.08 µM). In addition, the relative viability came to 0.536 in assay [2] (first compound 0.253 µM); 0.538 in assay [2] (first compound 0.8 µM); 0.568 in assay [2] (first compound 2.53 µM); 0.48 in assay [2] (first compound 8 µM); 1.02 in the assay with Masitinib + Foretinib (first compound 0.01 µM); 0.847 with Masitinib + Foretinib (first compound 0.03162 µM). For the same cell line, the relative viability in the assay with Masitinib + Foretinib (first compound 0.1 µM) stood at 1.09; with Masitinib + Foretinib (first compound 0.3162 µM), 0.787; in the assay with Masitinib + Foretinib (first compound 1 µM), 1.15; in the assay with Masitinib + Crizotinib (first compound 0.01 µM) it was 0.731; in the assay with Masitinib + Crizotinib (first compound 0.03162 µM), 0.759; with Masitinib + Crizotinib (first compound 0.1 µM) it was 0.891. The relative viability with Masitinib + Crizotinib (first compound 0.3162 µM) came out at 0.707; with Masitinib + Crizotinib (first compound 1 µM), 0.688.

In the case of NCI-H2405, the relative viability in assay [1] (first compound 0.08 µM) amounted to 0.675; in assay [1] (first compound 0.253 µM), 0.716; in assay [1] (first compound 0.8 µM) it was 0.667; in assay [1] (first compound 8 µM), 0.664; in assay [2] (first compound 0.08 µM), 0.751; in assay [2] (first compound 0.253 µM), 0.75. In addition, the relative viability came to 0.677 in assay [2] (first compound 0.8 µM); 0.723 in assay [2] (first compound 8 µM); 0.943 with Masitinib + Foretinib (first compound 0.01 µM); 1.02 with Masitinib + Foretinib (first compound 0.03162 µM); 0.98 in the assay with Masitinib + Foretinib (first compound 0.1 µM); 0.963 with Masitinib + Foretinib (first compound 0.3162 µM). Moreover, the relative viability was determined as 1.05 with Masitinib + Foretinib (first compound 1 µM); 0.77 with Masitinib + Crizotinib (first compound 0.01 µM); 0.784 with Masitinib + Crizotinib (first compound 0.03162 µM); 0.848 with Masitinib + Crizotinib (first compound 0.1 µM); 0.802 with Masitinib + Crizotinib (first compound 0.3162 µM); 0.746 in the assay with Masitinib + Crizotinib (first compound 1 µM).

Regarding NCI-H3122, the relative viability in assay [1] (first compound 0.08 µM) is 0.946; in assay [1] (first compound 0.253 µM), 1.01; in assay [1] (first compound 0.8 µM) it was 1.04; in assay [1] (first compound 2.53 µM), 1.04; in assay [1] (first compound 8 µM), 0.96; in assay [2] (first compound 0.08 µM), 0.578. Besides, the relative viability came out at 0.591 in assay [2] (first compound 0.253 µM); 0.548 in assay [2] (first compound 0.8 µM); 0.587 in assay [2] (first compound 2.53 µM); 0.457 in assay [2] (first compound 8 µM); 0.89 in the assay with Masitinib + Foretinib (first compound 0.01 µM); 1 with Masitinib + Foretinib (first compound 0.03162 µM). Besides, the relative viability with Masitinib + Foretinib (first compound 0.1 µM) is 1.05; in the assay with Masitinib + Foretinib (first compound 0.3162 µM), 1.01; with Masitinib + Foretinib (first compound 1 µM), 0.887; with Masitinib + Crizotinib (first compound 0.01 µM) it was 0.26; with Masitinib + Crizotinib (first compound 0.03162 µM) it was 0.252; with Masitinib + Crizotinib (first compound 0.1 µM), 0.306. Also, the relative viability with Masitinib + Crizotinib (first compound 0.3162 µM) came to 0.217; in the assay with Masitinib + Crizotinib (first compound 1 µM), 0.253.

As for PC-3 [JPC-3], the relative viability in assay [1] (first compound 0.08 µM) was determined as 0.711; in assay [1] (first compound 0.8 µM), 1.11; in assay [1] (first compound 2.53 µM) it was 0.712; in assay [1] (first compound 8 µM), 0.663; in assay [2] (first compound 0.08 µM), 0.926; in assay [2] (first compound 0.8 µM), 1.01. The relative viability turned out to be 1.07 in assay [2] (first compound 2.53 µM); 0.924 in assay [2] (first compound 8 µM); 1.03 in the assay with Masitinib + Foretinib (first compound 0.01 µM); 0.98 in the assay with Masitinib + Foretinib (first compound 0.03162 µM); 1.02 in the assay with Masitinib + Foretinib (first compound 0.1 µM); 1.02 in the assay with Masitinib + Foretinib (first compound 0.3162 µM). Further, the relative viability with Masitinib + Foretinib (first compound 1 µM) turned out to be 1; in the assay with Masitinib + Crizotinib (first compound 0.01 µM), 1.02; with Masitinib + Crizotinib (first compound 0.03162 µM) it was 0.974; with Masitinib + Crizotinib (first compound 0.1 µM), 0.975; with Masitinib + Crizotinib (first compound 0.3162 µM) it was 0.968; with Masitinib + Crizotinib (first compound 1 µM), 1.01.

As to PC-14, the relative viability in assay [1] (first compound 0.08 µM) worked out at 0.254; in assay [1] (first compound 0.253 µM) it was 0.28; in assay [1] (first compound 0.8 µM) it was 0.383; in assay [1] (first compound 2.53 µM), 0.247; in assay [1] (first compound 8 µM), 0.316; in assay [2] (first compound 0.08 µM), 0.298. For the same cell line, the relative viability in assay [2] (first compound 0.253 µM) turned out to be 0.289; in assay [2] (first compound 0.8 µM) it was 0.289; in assay [2] (first compound 2.53 µM) it was 0.238; in assay [2] (first compound 8 µM), 0.162; in the assay with Masitinib + Foretinib (first compound 0.01 µM) it was 0.809; with Masitinib + Foretinib (first compound 0.03162 µM), 0.831. Also, the relative viability with Masitinib + Foretinib (first compound 0.1 µM) stood at 0.857; in the assay with Masitinib + Foretinib (first compound 0.3162 µM), 0.957; with Masitinib + Foretinib (first compound 1 µM), 0.949; in the assay with Masitinib + Crizotinib (first compound 0.01 µM), 0.787; with Masitinib + Crizotinib (first compound 0.03162 µM), 0.817; with Masitinib + Crizotinib (first compound 0.1 µM), 0.901. For the same cell line, the figures for the relative viability with Masitinib + Crizotinib (first compound 0.3162 µM) and with Masitinib + Crizotinib (first compound 1 µM) were 0.723 and 0.829, respectively.

For the cell line RERF-LC-KJ, the relative viability came out at 1.09 in assay [1] (first compound 0.08 µM); 0.691 in assay [1] (first compound 0.253 µM); 0.775 in assay [1] (first compound 0.8 µM); 0.222 in assay [1] (first compound 2.53 µM); 0.911 in assay [1] (first compound 8 µM); 0.509 in assay [2] (first compound 0.08 µM). Further, the relative viability in assay [2] (first compound 0.253 µM) worked out at 0.258; in assay [2] (first compound 0.8 µM) it was 0.184; in assay [2] (first compound 2.53 µM), 0.181; in assay [2] (first compound 8 µM), 0.163; with Masitinib + Foretinib (first compound 0.01 µM), 0.734; with Masitinib + Foretinib (first compound 0.03162 µM), 0.883. For the same cell line, the relative viability with Masitinib + Foretinib (first compound 0.1 µM) worked out at 0.987; with Masitinib + Foretinib (first compound 0.3162 µM), 0.746; with Masitinib + Foretinib (first compound 1 µM) it was 0.797; in the assay with Masitinib + Crizotinib (first compound 0.01 µM) it was 0.853; in the assay with Masitinib + Crizotinib (first compound 0.03162 µM), 0.901; in the assay with Masitinib + Crizotinib (first compound 0.1 µM), 0.79. Further, the figures for the relative viability in the assay with Masitinib + Crizotinib (first compound 0.3162 µM) and with Masitinib + Crizotinib (first compound 1 µM) were 0.755 and 0.759, respectively.

Values taken from the supplement of paper PMC10307832.
